From US20250213532A1, “5-METHOXY-N,N-[…][…] THE TREATMENT OF BIPOLAR DISORDER” (GH RESEARCH IRELAND LIMITED, priority 2022, published 2025) come the findings set out here.

The data set is described as follows: Pharmacokinetics after single inhaled dose (LC-MS/MS). The format is in vivo, human. The method, then: Blood samples were obtained at 1; 2; 4; 7; 10; 15; 20; 30; 45 min and 1; 1.5; 2; 3; 4 hours after administration.
PK parameters were generated by algebraic analysis of the concentration versus time plots for each individual. The analysis was carried out using the software Phoenix WinNonlin 6.3.

In the case of `CN(C)CCc1c[nH]c2ccc(O)cc12` [bufotenine], the “Samples with bufotenine concentration above LLOQ” value (after inhaled 5-MeO-DMT, LLOQ 25 pg/ml) was “Only in few samples”. In addition, the “Bufotenine blood concentrations under uptitration scheme vs single dose” value (subjects receiving an uptitration scheme included) is on record as “Substantially similar observations”.
